Reference: PubChem BioAssay (NCI)
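Exposure lasted 48 hours, with cells grown in 96-well plates and compounds tested at five concentrations. GI50 is the concentration that inhibits growth by half. At the TGI there is no net growth.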

Experiments:
Assay in all cases: NCI-60 cell line screen, 48 h
[1] = tested on: T-47D breast
[2] = tested on: HOP-62 NSCLC
[3] = tested on: HOP-92 NSCLC
[4] = tested on: NCI/ADR-RES ovarian
[5] = tested on: M14 melanoma
[6] = tested on: U251 CNS
[7] = tested on: DU-145 prostate
[8] = tested on: ACHN renal
[9] = tested on: SW-620 colon
[10] = tested on: SF-268 CNS
[11] = tested on: OVCAR-8 ovarian
[12] = tested on: SNB-75 CNS
[13] = tested on: HT29 colon
[14] = tested on: SF-295 CNS
[15] = tested on: KM12 colon
[16] = tested on: A549 NSCLC
[17] = tested on: CAKI-1 renal
[18] = tested on: SK-MEL-2 melanoma
[19] = tested on: NCI-H226 lung
[20] = tested on: TK-10 renal
[21] = tested on: NCI-H460 lung
[22] = tested on: SK-MEL-5 melanoma
[23] = tested on: PC-3 prostate
[24] = tested on: A498 renal
[25] = tested on: HCC-2998 colon
[26] = tested on: 786-0 renal
[27] = tested on: OVCAR-5 ovarian
[28] = tested on: OVCAR-4 ovarian
[29] = tested on: UACC-62 melanoma
[30] = tested on: BT-549 breast
[31] = tested on: COLO 205 colon
[32] = tested on: NCI-H23 lung
[33] = tested on: OVCAR-3 ovarian
[34] = tested on: UACC-257 melanoma
[35] = tested on: SK-MEL-28 melanoma
[36] = tested on: SF-539 CNS
[37] = tested on: CCRF-CEM leukemia
[38] = tested on: UO-31 renal
[39] = tested on: SNB-19 CNS
[40] = tested on: IGROV1 ovarian
[41] = tested on: MCF7 breast
[42] = tested on: MALME-3M melanoma
[43] = tested on: HCT-116 colon
[44] = tested on: MDA-MB-231 breast
[45] = tested on: HL-60(TB) leukemia
[46] = tested on: RPMI-8226 leukemia
[47] = tested on: SK-OV-3 ovarian
[48] = tested on: RXF 393 renal
[49] = tested on: SN12C renal
[50] = tested on: EKVX NSCLC
[51] = tested on: MOLT-4 leukemia
[52] = tested on: HS 578T breast
[53] = tested on: MDA-MB-435
[54] = tested on: NCI-H522 lung
[55] = tested on: LOX IMVI melanoma
[56] = tested on: HCT-15 colon

Cc1ncc(C(=O)Nc2ccc(CN3CCN(C)CC3)c(C(F)(F)F)c2)cc1C#Cc1c(N)ncc2ccc(F)cc12
GI50 [1]: 4100 nM | TGI [1]: 16300 nM | GI50 [2]: 1180 nM | TGI [2]: 8180 nM | GI50 [3]: 48.9 nM | TGI [3]: 468 nM | GI50 [4]: 1260 nM | TGI [4]: 4250 nM | GI50 [5]: 128 nM | TGI [5]: 690 nM | GI50 [6]: 826 nM | TGI [6]: 1580 nM | GI50 [7]: 692 nM | TGI [7]: 1390 nM | GI50 [8]: 374 nM | TGI [8]: 3230 nM | GI50 [9]: 274 nM | TGI [9]: 1070 nM | GI50 [10]: 717 nM | TGI [10]: 2500 nM | GI50 [11]: 931 nM | TGI [11]: 2410 nM | GI50 [12]: 774 nM | TGI [12]: 2270 nM | GI50 [13]: 68.9 nM | TGI [13]: 651 nM | GI50 [14]: 3450 nM | TGI [14]: 11300 nM | GI50 [15]: 5 nM | TGI [15]: 646 nM | GI50 [16]: 631 nM | TGI [16]: 1440 nM | GI50 [17]: 1050 nM | TGI [17]: 6160 nM | GI50 [18]: 1050 nM | TGI [18]: 5770 nM | GI50 [19]: 624 nM | TGI [19]: 3650 nM | GI50 [20]: 715 nM | TGI [20]: 1520 nM | GI50 [21]: 643 nM | TGI [21]: 1470 nM | GI50 [22]: 678 nM | TGI [22]: 1530 nM | GI50 [23]: 870 nM | TGI [23]: 3140 nM | GI50 [24]: 930 nM | TGI [24]: 1740 nM | GI50 [25]: 1010 nM | TGI [25]: 7810 nM | GI50 [26]: 756 nM | TGI [26]: 1560 nM | GI50 [27]: 669 nM | TGI [27]: 3030 nM | GI50 [28]: 2600 nM | TGI [28]: 10800 nM | GI50 [29]: 282 nM | TGI [29]: 2840 nM | GI50 [30]: 1490 nM | TGI [30]: 4120 nM | GI50 [31]: 197 nM | TGI [31]: 1230 nM | GI50 [32]: 596 nM | TGI [32]: 1370 nM | GI50 [33]: 789 nM | TGI [33]: 1540 nM | GI50 [34]: 649 nM | TGI [34]: 3220 nM | GI50 [35]: 415 nM | TGI [35]: 1230 nM | GI50 [36]: 624 nM | TGI [36]: 1300 nM | GI50 [37]: 809 nM | TGI [37]: 2140 nM | GI50 [38]: 602 nM | TGI [38]: 2800 nM | GI50 [39]: 787 nM | TGI [39]: 1490 nM | GI50 [40]: 301 nM | TGI [40]: 6270 nM | GI50 [41]: 503 nM | TGI [41]: 1330 nM | GI50 [42]: 105 nM | TGI [42]: 601 nM | GI50 [43]: 176 nM | TGI [43]: 873 nM | GI50 [44]: 129 nM | TGI [44]: 743 nM | GI50 [45]: 319 nM | TGI [45]: 2060 nM | GI50 [46]: 673 nM | TGI [46]: 2170 nM | GI50 [47]: 4790 nM | TGI [47]: 12000 nM | GI50 [48]: 608 nM | TGI [48]: 1290 nM | GI50 [49]: 422 nM | TGI [49]: 3050 nM | GI50 [50]: 1540 nM | TGI [50]: 9370 nM | GI50 [51]: 579 nM | TGI [51]: 1740 nM | GI50 [52]: 588 nM | TGI [52]: 2740 nM | GI50 [53]: 170 nM | TGI [53]: 1040 nM | GI50 [54]: 668 nM | TGI [54]: 1830 nM | GI50 [55]: 184 nM | TGI [55]: 841 nM | GI50 [56]: 559 nM | TGI [56]: 3150 nM
